{"source": "BindingDB's records for doi:10.1021/jm0200660", "about": "(Berlex Biosciences, 2002)", "target": "Cationic trypsin (Bos taurus)", "experiment": "Inhibitory constant against bovine trypsin for general specificity against serine proteases"}
{"compound": "Cc1c(F)c(Oc2cccc(C(=N)N)c2)nc(Oc2cccc(C(N)=O)c2)c1F", "note": "[3-[6-(3-Carbamimidoyl-phenoxy)-3,5-difluoro-4-methyl-pyridin-2-yloxy]-benzamide]", "values": [{"measurement": "Ki", "result": "> 5", "unit": "µM"}]}
